Results as given in PMC3753695 (Neuron, 2013).

Target: T1, OBP49a (Drosophila melanogaster, UniProt A1Z947)
T1 sequence (A1Z947 23-212): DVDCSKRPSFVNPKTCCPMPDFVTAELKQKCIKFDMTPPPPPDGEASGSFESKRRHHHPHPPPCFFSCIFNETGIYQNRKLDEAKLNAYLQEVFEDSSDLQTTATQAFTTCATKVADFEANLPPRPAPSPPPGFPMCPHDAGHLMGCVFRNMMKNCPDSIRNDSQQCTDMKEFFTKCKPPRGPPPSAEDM
Experiment: surface plasmon resonance
Format: binding
Conditions: pH 7.4; 25 °C; HBS-P (10 mM HEPES, 150 mM NaCl, 0.005 % Surfactant P20); dose-dependent

SMILES | surface plasmon resonance (BIAcore 3000, OBP49a on CM5 chip)
COc1ccc2cc3[n+](cc2c1OC)CCc1cc2c(cc1-3)OCO2 [berberine] | berberine, denatonium and quinine bound to OBP49a in a dosedependent manner
CC[N+](CC)(CC(=O)Nc1c(C)cccc1C)Cc1ccccc1 [denatonium] | berberine, denatonium and quinine bound to OBP49a in a dosedependent manner
C=C[C@H]1CN2CC[C@H]1C[C@H]2[C@H](O)c1ccnc2ccc(OC)cc12 [quinine] | berberine, denatonium and quinine bound to OBP49a in a dosedependent manner
